Experimental data taken from article PMC12749166, “Fragment-based drug design of a bacterial kinase inhibitor capable of increasing the antibiotic sensitivity of clinical isolates” (Communications Chemistry, 2025).
Values after ≈ are worked out from the molar mass of the structure shown. Where two headings read alike, the source gives them in different places.

What was measured:
[1] = test system: P. aeruginosa clinical isolates; experiment: MIC by broth micro-dilution; format: cell-based; conditions: Pseudomonas aeruginosa, read-out: MIC
S. aureus C0032 = experiment: MIC by broth micro-dilution; format: cell-based; conditions: Staphylococcus aureus; S. aureus C0032, aph(3')-IIIa ant(6); read-out: MIC
APH(2”)-IVa [2] = biological target: T1, APH(2”)-IVa (Enterococcus casseliflavus, UniProt O68183); experiment: biochemical; format: binding; conditions: read-out: ΔTm (°C)
T1 sequence (O68183 1-301): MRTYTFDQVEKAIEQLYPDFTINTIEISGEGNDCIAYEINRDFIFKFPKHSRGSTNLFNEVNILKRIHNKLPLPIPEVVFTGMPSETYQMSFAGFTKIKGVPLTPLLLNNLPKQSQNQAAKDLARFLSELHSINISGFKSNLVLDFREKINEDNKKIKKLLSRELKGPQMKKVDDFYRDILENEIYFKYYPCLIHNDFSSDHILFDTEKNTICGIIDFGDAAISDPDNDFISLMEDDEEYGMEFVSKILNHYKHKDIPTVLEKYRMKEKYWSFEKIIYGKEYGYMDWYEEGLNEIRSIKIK
Protocol: Thermal shift assays were performed using an RTqPCR machine Mx3005P (Stratagene) in 96-well plates (Thermo-Fast low Profile, ThermoScientific) by mixing the protein at 5 µM, SYPRO® Orange (Sigma Aldrich) at […], and fragments at 500 µM. Fluorescence was followed with Cy3 and SYAL filters. Denaturation curves were collected using MxPro-Mx3005P v4.10 software and analyzed using the implemented version of wTSA-CRAFT[36].

APH(2”)-IVa [3] = biological target: T1, APH(2”)-IVa; conditions: 500 µM; times more inhibition than F136
APH(2”)-IVa [4] = biological target: T1, APH(2”)-IVa; experiment: biochemical; conditions: Ki (µM), inhibition constant, ATP-competitive; 0-2 mM MgATP, 100 µM kanamycin A, global fitting

SMILES | ΔTm at 500 µM (APH(2”)-IVa [2]) [°C] | Ki (APH(2”)-IVa [4]) [µM] | other results
NCC[C@H](O)C(=O)N[C@@H]1C[C@H](N)[C@@H](O[C@H]2O[C@H](CN)[C@@H](O)[C@H](O)[C@H]2O)[C@H](O)[C@H]1O[C@H]1O[C@H](CO)[C@@H](O)[C@H](N)[C@H]1O [Amikacin] | – | – | MIC ([1]; P. aeruginosa C0214, aph(3')-IIb): 8 to 32 µg/mL (≈ 13.7 to 54.6 µM); MIC ([1]; P. aeruginosa C0307, aph(3')-IIb): 4 to 8 µg/mL (≈ 6.83 to 13.7 µM); MIC (S. aureus C0032): 16 to 32 µg/mL (≈ 27.3 to 54.6 µM)
Nc1ccc(Br)cn1 [Compound 1] | 0.5 | – | –
Clc1cnc2[nH]ccc2c1 [Compound 2, 5-chloro-7-azaindole] | – | 9.63 | Inhibition relative to F136 (APH(2”)-IVa [3]): 5.9 times
O=C(Nc1ccc(Cl)cc1)Nc1ccc(Cl)cn1 [Compound 6] | 0.17 | – | –
O=C(Nc1ccc(Br)cc1)Nc1ccc(Br)cn1 [Compound 7] | -0.26 | – | –
O=C(O)CNC(=O)Nc1ccc(Br)cn1 [Compound 8] | -0.25 | – | –
Clc1ccc(NCCc2ccccc2)nc1 [Compound 11] | 0.48 | – | –
Nc1ncc(Cl)cc1S(=O)(=O)N1CCCC(N)C1 (stereo not drawn) [Compound 16] | 1.7 | – | –
Nc1ncc(Cl)cc1S(=O)(=O)N1CCCNCC1 [Compound 17] | 1.05 | – | –
CC1CCCN(S(=O)(=O)c2cc(Cl)cnc2N)C1CN (stereo not drawn) [Compound 22] | 0.2 | – | –
Nc1ncc(Cl)cc1S(=O)(=O)NC1CCCNC1 (stereo not drawn) [Compound 23] | 0.33 | – | –
Nc1ncc(Cl)cc1S(=O)(=O)N1CCCCC1c1ncc[nH]1 (stereo not drawn) [Compound 24] | 1.99 | – | –
Nc1ncc(Cl)cc1S(=O)(=O)NCCCN1CCC(O)CC1 [Compound 25] | 0.6 | – | –
Cn1nccc1C1CCCN(c2cc(N)ncc2Cl)C1 (stereo not drawn) [Compound 27] | -1.45 | – | –
Nc1cc(N2CCC(C(=O)N3CCCCC3)CC2)c(Cl)cn1 [Compound 28] | -1.78 | – | –
Nc1cc(N2CCOC(c3ccccc3)C2)c(Cl)cn1 (stereo not drawn) [Compound 30] | -1.22 | – | –
O=C(NCCc1ccccc1)c1cc(NC2CC2)ncc1Cl [Compound 36-1] | – | 66.1 | –
O=C(NCCc1ccc(O)cc1)c1cc(NC2CC2)ncc1Cl [Compound 36-2] | – | 11.9 | –
NC(=O)CNC(=O)c1cc(NC2CC2)ncc1Cl [Compound 36-3] | – | 32.3 | –
O=C(NCc1ccccc1)c1cc(NC2CC2)ncc1Cl [Compound 36-4] | – | 79.1 | –
O=C(NCCO)c1cc(NC2CC2)ncc1Cl [Compound 36-5] | – | 25.6 | –
NNC(=O)c1cc(NC2CC2)ncc1Cl [Compound 36-6] | – | 11.4 | –
CN(C)CCNC(=O)c1cc(NC2CC2)ncc1Cl [Compound 36-7] | – | 18.6 | –
NCCNC(=O)c1cc(NC2CC2)ncc1Cl [Compound 36-8] | – | 16.3 | –
